Reference: ChEMBL document CHEMBL4184231, “Selective inhibition of monoamine oxidase A by hispidol” (Bioorg Med Chem Lett, 2018)

Columns and labels:
[1] = target: T1, Amine oxidase [flavin-containing] A (Homo sapiens, UniProt P21397); assay: Competitive inhibition of human recombinant MAOA using 0.006 to […] kynuramine as substrate preincubated for 30 mins followed by substrate addition by Lineweaver-Burk plot
T1 sequence (P21397 whole entry): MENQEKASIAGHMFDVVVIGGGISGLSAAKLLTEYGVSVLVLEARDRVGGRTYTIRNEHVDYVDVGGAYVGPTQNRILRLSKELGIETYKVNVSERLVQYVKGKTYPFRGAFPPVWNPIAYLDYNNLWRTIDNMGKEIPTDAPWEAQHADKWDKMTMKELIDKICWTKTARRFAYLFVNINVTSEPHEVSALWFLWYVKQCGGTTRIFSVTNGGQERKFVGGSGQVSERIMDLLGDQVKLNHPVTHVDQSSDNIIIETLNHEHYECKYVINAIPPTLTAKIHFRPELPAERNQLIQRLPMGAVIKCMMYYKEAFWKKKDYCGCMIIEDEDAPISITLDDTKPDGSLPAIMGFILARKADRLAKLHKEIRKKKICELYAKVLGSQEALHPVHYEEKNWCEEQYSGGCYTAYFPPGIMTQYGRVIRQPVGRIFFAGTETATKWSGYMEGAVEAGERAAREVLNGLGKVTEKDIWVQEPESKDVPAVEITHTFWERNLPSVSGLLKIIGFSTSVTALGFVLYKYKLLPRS

[2] = target: T2, Amine oxidase [flavin-containing] B (Homo sapiens, UniProt P27338); assay: Inhibition of human recombinant MAOB assessed as residual enzyme activity at 5 uM pre-incubated for 30 mins followed by 0.06 mM benzylamine substrate addition
T2 sequence (P27338 whole entry): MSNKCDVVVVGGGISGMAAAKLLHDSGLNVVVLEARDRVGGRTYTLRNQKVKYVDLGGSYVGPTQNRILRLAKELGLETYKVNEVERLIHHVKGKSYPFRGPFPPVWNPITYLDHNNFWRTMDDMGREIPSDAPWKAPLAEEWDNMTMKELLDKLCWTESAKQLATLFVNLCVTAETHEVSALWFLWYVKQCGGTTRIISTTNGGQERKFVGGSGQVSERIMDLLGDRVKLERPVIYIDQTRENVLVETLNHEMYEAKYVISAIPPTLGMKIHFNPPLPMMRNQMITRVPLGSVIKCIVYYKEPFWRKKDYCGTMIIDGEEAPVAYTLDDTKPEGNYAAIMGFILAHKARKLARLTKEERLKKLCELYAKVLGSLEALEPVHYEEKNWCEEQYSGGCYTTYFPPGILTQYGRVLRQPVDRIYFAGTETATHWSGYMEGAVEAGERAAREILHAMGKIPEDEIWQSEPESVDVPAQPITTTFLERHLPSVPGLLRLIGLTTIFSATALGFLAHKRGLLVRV

[3] = target: T1, Amine oxidase [flavin-containing] A; assay: Inhibition of human recombinant MAOA using kynuramine as substrate preincubated for 30 mins followed by substrate addition
[4] = target: T1, Amine oxidase [flavin-containing] A; assay: Reversible inhibition of human recombinant MAOA assessed as residual enzyme activity at 0.5 uM pre-incubated with enzyme for 30 mins followed by dialysis with pH 7.2 sodium phosphate buffer for 6 hrs followed by 0.06 mM kynuramine substrate addition; settings: read-out: INH
[5] = target: T1, Amine oxidase [flavin-containing] A; assay: Inhibition of human recombinant MAOA assessed as residual enzyme activity at 0.5 uM pre-incubated for 30 mins followed by 0.06 mM kynuramine substrate addition; settings: read-out: INH
[6] = target: T2, Amine oxidase [flavin-containing] B; assay: Reversible inhibition of human recombinant MAOB assessed as residual enzyme activity at 5 uM pre-incubated with enzyme for 30 mins followed by dialysis with pH 7.2 sodium phosphate buffer for 6 hrs followed by 0.06 mM benzylamine substrate addition; settings: pH 7.2, 6 h
[7] = target: T1, Amine oxidase [flavin-containing] A; assay: Time dependent inhibition of human recombinant MAOA using kynuramine as substrate preincubated for up to 30 mins followed by substrate addition
[8] = target: T1, Amine oxidase [flavin-containing] A; assay: Irreversible inhibition of human recombinant MAOA assessed as residual enzyme activity at 0.01 uM pre-incubated with enzyme for 30 mins followed by dialysis with pH 7.2 sodium phosphate buffer for 6 hrs followed by 0.06 mM kynuramine substrate addition; settings: read-out: Activity
[9] = target: T1, Amine oxidase [flavin-containing] A; assay: Inhibition of human recombinant MAOA assessed as residual enzyme activity at 0.01 uM pre-incubated for 30 mins followed by 0.06 mM kynuramine substrate addition; settings: read-out: Activity
[10] = target: T2, Amine oxidase [flavin-containing] B; assay: Reversible inhibition of human recombinant MAOB assessed as residual enzyme activity at 2 times IC50 pre-incubated with enzyme for 30 mins followed by dialysis with pH 7.2 sodium phosphate buffer for 6 hrs followed by 0.06 mM benzylamine substrate addition; settings: pH 7.2, 6 h
[11] = target: T2, Amine oxidase [flavin-containing] B; assay: Inhibition of human recombinant MAOB assessed as residual enzyme activity at 2 time IC50 pre-incubated for 30 mins followed by 0.06 mM benzylamine substrate addition
[12] = target: T2, Amine oxidase [flavin-containing] B; assay: Inhibition of human recombinant MAOB at 80 uM using benzylamine as substrate preincubated for 30 mins followed by substrate addition
Homo sapiens = organism: Homo sapiens; assay: Selectivity index, ratio of IC50 for human recombinant MAOB to IC50 for human recombinant MAOA
[13] = target: T2, Amine oxidase [flavin-containing] B; assay: Inhibition of human recombinant MAOB using benzylamine as substrate preincubated for 30 mins followed by substrate addition
[14] = target: T1, Amine oxidase [flavin-containing] A; assay: Inhibition of human recombinant MAOA assessed as residual enzyme activity at 2 uM pre-incubated for 30 mins followed by 0.06 mM kynuramine substrate addition; settings: read-out: Activity
[15] = target: T1, Amine oxidase [flavin-containing] A; assay: Reversible inhibition of human recombinant MAOA assessed as residual enzyme activity at 2 uM pre-incubated with enzyme for 30 mins followed by dialysis with pH 7.2 sodium phosphate buffer for 6 hrs followed by 0.06 mM kynuramine substrate addition; settings: read-out: Activity

In the case of `O=C1/C(=C/c2ccc(O)cc2)Oc2cc(O)ccc21`, the Ki [1] is reported as 0.1 µM, the Activity [2] is reported as 87.5% and the IC50 [3] is reported as 0.26 µM. For the same molecule, the activity at 0.5 µM [4] was 83.7%, the activity at 0.5 µM [5] was 29.8% and the Activity [6] was 28%. The TDI [7] was “Not Active”.
With `COc1cc(O)c2c(=O)oc3cc(O)cc(C)c3c2c1` the IC50 [3] was 1.71 µM.
With `COc1ccc(-c2cc(=O)c3c(O)cc(O)cc3o2)cc1` [ACACETIN] the IC50 [3] was 0.19 µM.
For `O=c1cc(-c2ccc(O)cc2)oc2cc(O)cc(O)c12` [APIGENIN], the IC50 [3] was 1.55 µM.
Molecule `C#CCN(C)CCCOc1ccc(Cl)cc1Cl` [CLORGILINE] has an activity at 0.01 µM [8] of 17.3% and an activity at 0.01 µM [9] of 18.3%.
`CC(C)=CC(=O)O[C@H]1Cc2cc3ccc(=O)oc3cc2OC1(C)C` [DECURSIN] was tested, and the IC50 [3] was 1.76 µM.
`NCCNC(=O)c1ccc(Cl)cn1` [LAZABEMIDE] showed an Activity [10] of 35% and an Activity [11] of 72.9%.
With `O=C1/C(=C/c2ccc(O)c(O)c2)Oc2cc(O)ccc21` [SULFURETIN] the IC50 [3] was 4.16 µM, the inhibition at 80 µM [12] was 20.8% and the Ratio IC50 (Homo sapiens) was greater than 19.2. For the same molecule, the TDI [7] was “Not Active” and the IC50 [13] was greater than 80 µM.
`Cc1cccc(N2CC(CO)OC2=O)c1` (configuration not stated) [TOLOXATONE] showed an activity at 2 µM [14] of 75.4% and an activity at 2 µM [15] of 30.7%.
